From PubChem BioAssay (NCI)
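Step 1: Grow cells in 96-well plates. Step 2: Expose to compound for 48 hours at 5 concentrations. Step 3: Interpolate endpoints linearly; if unreached, use highest concentration. Here, GI50 denotes the concentration required for 50% inhibition of growth. TGI: total growth inhibition.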

What was measured:
Test in all cases: NCI-60 cell line screen, 48 h
DU-145 prostate = test system: DU-145 prostate
SNB-19 CNS = test system: SNB-19 CNS
SR leukemia = test system: SR leukemia
TK-10 renal = test system: TK-10 renal
UO-31 renal = test system: UO-31 renal
NCI-H226 lung = test system: NCI-H226 lung
HL-60(TB) leukemia = test system: HL-60(TB) leukemia
K-562 leukemia = test system: K-562 leukemia
SN12C renal = test system: SN12C renal
MDA-MB-435 = test system: MDA-MB-435
KM12 colon = test system: KM12 colon
ACHN renal = test system: ACHN renal
OVCAR-8 ovarian = test system: OVCAR-8 ovarian
MOLT-4 leukemia = test system: MOLT-4 leukemia
MCF7 breast = test system: MCF7 breast
OVCAR-5 ovarian = test system: OVCAR-5 ovarian
MDA-MB-468 breast = test system: MDA-MB-468 breast
OVCAR-3 ovarian = test system: OVCAR-3 ovarian
OVCAR-4 ovarian = test system: OVCAR-4 ovarian
RXF 393 renal = test system: RXF 393 renal
MALME-3M melanoma = test system: MALME-3M melanoma
UACC-62 melanoma = test system: UACC-62 melanoma
786-0 renal = test system: 786-0 renal
SK-OV-3 ovarian = test system: SK-OV-3 ovarian
EKVX NSCLC = test system: EKVX NSCLC
U251 CNS = test system: U251 CNS
HCC-2998 colon = test system: HCC-2998 colon
UACC-257 melanoma = test system: UACC-257 melanoma
RPMI-8226 leukemia = test system: RPMI-8226 leukemia
SK-MEL-28 melanoma = test system: SK-MEL-28 melanoma
A498 renal = test system: A498 renal
HCT-116 colon = test system: HCT-116 colon
T-47D breast = test system: T-47D breast
NCI-H23 lung = test system: NCI-H23 lung
SF-295 CNS = test system: SF-295 CNS
HOP-92 NSCLC = test system: HOP-92 NSCLC
CCRF-CEM leukemia = test system: CCRF-CEM leukemia
SNB-75 CNS = test system: SNB-75 CNS
MDA-MB-231 breast = test system: MDA-MB-231 breast
HS 578T breast = test system: HS 578T breast
SF-539 CNS = test system: SF-539 CNS
IGROV1 ovarian = test system: IGROV1 ovarian
A549 NSCLC = test system: A549 NSCLC
SK-MEL-2 melanoma = test system: SK-MEL-2 melanoma
NCI-H460 lung = test system: NCI-H460 lung
HOP-62 NSCLC = test system: HOP-62 NSCLC
SW-620 colon = test system: SW-620 colon
COLO 205 colon = test system: COLO 205 colon
BT-549 breast = test system: BT-549 breast
SF-268 CNS = test system: SF-268 CNS
M14 melanoma = test system: M14 melanoma
PC-3 prostate = test system: PC-3 prostate
HCT-15 colon = test system: HCT-15 colon
HT29 colon = test system: HT29 colon
SK-MEL-5 melanoma = test system: SK-MEL-5 melanoma
LOX IMVI melanoma = test system: LOX IMVI melanoma
CAKI-1 renal = test system: CAKI-1 renal
NCI-H522 lung = test system: NCI-H522 lung

## O=C1Nc2cc(Cl)ccc2/C1=C/c1cccc(OCc2ccccc2)c1
DU-145 prostate
  GI50: 10.9 µM
  TGI: 42.1 µM
SNB-19 CNS
  GI50: 10.2 µM
  TGI: 25.7 µM
SR leukemia
  GI50: 2.1 µM
  TGI: 5.86 µM
TK-10 renal
  GI50: 16.2 µM
  TGI: 35.9 µM
UO-31 renal
  GI50: 2.45 µM
  TGI: 18.6 µM
NCI-H226 lung
  GI50: 6.43 µM
  TGI: 22.2 µM
HL-60(TB) leukemia
  GI50: 2.23 µM
  TGI: 6.49 µM
K-562 leukemia
  GI50: 2.13 µM
  TGI: 10.2 µM
SN12C renal
  GI50: 6.93 µM
  TGI: 20.3 µM
MDA-MB-435
  GI50: 2.04 µM
  TGI: 4.45 µM
KM12 colon
  GI50: 3.69 µM
  TGI: 14.1 µM
ACHN renal
  GI50: 3.97 µM
  TGI: 16.1 µM
OVCAR-8 ovarian
  GI50: 6.86 µM
  TGI: 25.3 µM
MOLT-4 leukemia
  GI50: 2.69 µM
  TGI: 10.9 µM
MCF7 breast
  GI50: 1.67 µM
  TGI: 12.9 µM
OVCAR-5 ovarian
  GI50: 11.8 µM
  TGI: 24.4 µM
MDA-MB-468 breast
  GI50: 2.43 µM
  TGI: 14.1 µM
OVCAR-3 ovarian
  GI50: 2.89 µM
  TGI: 9.48 µM
OVCAR-4 ovarian
  GI50: 3.7 µM
  TGI: 19.1 µM
RXF 393 renal
  GI50: 10.8 µM
  TGI: 24.4 µM
MALME-3M melanoma
  GI50: 4.3 µM
  TGI: 16.7 µM
UACC-62 melanoma
  GI50: 2.41 µM
  TGI: 10.1 µM
786-0 renal
  GI50: 3.12 µM
  TGI: 15.9 µM
SK-OV-3 ovarian
  GI50: 13.1 µM
  TGI: 31.6 µM
EKVX NSCLC
  GI50: 5.35 µM
  TGI: 23.7 µM
U251 CNS
  GI50: 3.5 µM
  TGI: 13.7 µM
HCC-2998 colon
  GI50: 11.9 µM
  TGI: 25.3 µM
UACC-257 melanoma
  GI50: 6.18 µM
  TGI: 21.2 µM
RPMI-8226 leukemia
  GI50: 2.13 µM
  TGI: 11.7 µM
SK-MEL-28 melanoma
  GI50: 5.3 µM
  TGI: 17.9 µM
A498 renal
  GI50: 13.7 µM
  TGI: 27.9 µM
HCT-116 colon
  GI50: 2.43 µM
  TGI: 12.7 µM
T-47D breast
  GI50: 4.73 µM
  TGI: 30 µM
NCI-H23 lung
  GI50: 4.23 µM
  TGI: 21.5 µM
SF-295 CNS
  GI50: 5.18 µM
  TGI: 21 µM
HOP-92 NSCLC
  GI50: 1.33 µM
  TGI: 9.75 µM
CCRF-CEM leukemia
  GI50: 2.86 µM
  TGI: 13.1 µM
SNB-75 CNS
  GI50: 3.23 µM
  TGI: 21.2 µM
MDA-MB-231 breast
  GI50: 4.76 µM
  TGI: 18.6 µM
HS 578T breast
  GI50: 3.46 µM
  TGI: 22.8 µM
SF-539 CNS
  GI50: 2.27 µM
  TGI: 5.49 µM
IGROV1 ovarian
  GI50: 3.43 µM
  TGI: 18.3 µM
A549 NSCLC
  GI50: 10 µM
  TGI: 24.9 µM
SK-MEL-2 melanoma
  GI50: 3.68 µM
  TGI: 15 µM
NCI-H460 lung
  GI50: 3.24 µM
  TGI: 11.5 µM
HOP-62 NSCLC
  GI50: 9.61 µM
  TGI: 29.1 µM
SW-620 colon
  GI50: 3.59 µM
  TGI: 14.5 µM
COLO 205 colon
  GI50: 13.8 µM
  TGI: 30.2 µM
BT-549 breast
  GI50: 2.44 µM
  TGI: 11.2 µM
SF-268 CNS
  GI50: 3.26 µM
  TGI: 15.1 µM
M14 melanoma
  GI50: 3.19 µM
  TGI: 15.5 µM
PC-3 prostate
  GI50: 4.67 µM
  TGI: 20.5 µM
HCT-15 colon
  GI50: 2.58 µM
  TGI: 13.3 µM
HT29 colon
  GI50: 5.92 µM
  TGI: 20.3 µM
SK-MEL-5 melanoma
  GI50: 3.17 µM
  TGI: 11.4 µM
LOX IMVI melanoma
  GI50: 2.75 µM
  TGI: 11.4 µM
CAKI-1 renal
  GI50: 2.77 µM
  TGI: 16.4 µM
NCI-H522 lung
  GI50: 2.93 µM
  TGI: 12.2 µM
